Experimental data reported in patent publication US10364245B2 (CHIESI FARMACEUTICI S.p.A., priority 2017, dated 2019).
Structures can show the parent of a compound that is named as a salt.

Assays:
p38 alpha = molecular target: T1, p38 alpha (Homo sapiens, UniProt Q16539); assay: P38 alpha enzyme inhibition assay (Alphascreen kinase activity assay); type: biochemical; details: 100 pM p38 alpha, 2 hours preincubation at 25° C., 250 μM ATP, ATF-2 fusion protein; read-out: p38α inhibition
T1 construct: purchased Invitrogen PV3304
T1 sequence (Q16539 whole entry, the tested form may be a part): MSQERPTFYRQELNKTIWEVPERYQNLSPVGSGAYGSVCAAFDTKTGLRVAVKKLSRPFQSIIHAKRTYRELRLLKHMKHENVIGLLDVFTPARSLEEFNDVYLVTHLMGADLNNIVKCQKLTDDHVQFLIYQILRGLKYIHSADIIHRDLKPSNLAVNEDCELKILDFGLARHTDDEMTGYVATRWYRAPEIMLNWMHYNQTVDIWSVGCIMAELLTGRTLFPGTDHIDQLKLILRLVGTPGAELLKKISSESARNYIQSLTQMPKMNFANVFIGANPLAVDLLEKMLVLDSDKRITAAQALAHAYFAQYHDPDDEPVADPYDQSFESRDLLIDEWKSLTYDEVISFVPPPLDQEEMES
In short: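 Phosphorylation of ATF-2 fusion protein (0.3 μg/ml) read by AlphaScreen with anti-phospho-ATF2 antibody after 1 h kinase reaction at 25 °C, initiated by 250 μM ATP. Compounds first incubated 2 h at 25 °C with 100 pM p38 alpha in pH 7.5 HEPES buffer, 1% DMSO. IC50 derived from concentration-response data.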

[1] = system: Peripheral Blood Mononuclear Cells (PBMCs), TNFα release; assay: LPS-stimulated PBMC TNFα release assay; type: cell-based; details: human PBMC, LPS (10 ng/ml), 18 h, compound 1 h before LPS; read-out: LPS-stimulated PBMC TNFα release inhibition
In short: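 TNFα in cell-free supernatant, read on MSD plates, gave % inhibition curves and IC50 (≥3 separate experiments). Healthy-donor PBMCs had 1 h compound exposure at 37 °C in 1% FBS medium, then 18 h stimulation with 10 ng/ml LPS, after a 3 h serum-free rest.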

Row | IC50 (p38 alpha) [nM] | Compound | IC50 [1] [nM]
1 | < 1 | CCC(CC)c1nnc2ccc(O[C@@H]3CC[C@H](NC(=O)Nc4cc(C(C)(C)C)nc(C(=O)NCC(C)(C)N5CCN(C)CC5)n4)c4ccccc43)cn12 [Example 173, 4-(tert-butyl)-N-(2-methyl-2-(4-methylpiperazin-1-yl)propyl)-6-(3-((1S,4R)-4-((3-(pentan-3-yl)-[1,2,4]triazolo[4,3-a]pyridin-6-yl)oxy)-1,2,3,4-tetrahydronaphthalen-1-yl)ureido)pyrimidine-2-carboxamide formate salt] | 1 to 5
2 | < 1 | CCC(CC)c1nnc2ccc(O[C@@H]3CC[C@H](NC(=O)Nc4cc(C(C)(C)C)nc(C(=O)NCC(C)(C)N5CC(OC)C5)n4)c4ccccc43)cn12 [Example 174, 4-(tert-butyl)-N-(2-(3-methoxyazetidin-1-yl)-2-methylpropyl)-6-(3-((1S,4R)-4-((3-(pentan-3-yl)-[1,2,4]triazolo[4,3-a]pyridin-6-yl)oxy)-1,2,3,4-tetrahydronaphthalen-1-yl)ureido)pyrimidine-2-carboxamide formate salt] | 1 to 5
3 | < 1 | CCC(CC)c1nnc2ccc(O[C@@H]3CC[C@H](NC(=O)Nc4cc(C(C)(C)C)nc(C(=O)NCC(C)(C)N(C)C)n4)c4ccccc43)cn12 [Example 175, 4-(tert-butyl)-N-(2-(dimethylamino)-2-methylpropyl)-6-(3-((1S,4R)-4-((3-(pentan-3-yl)-[1,2,4]triazolo[4,3-a]pyridin-6-yl)oxy)-1,2,3,4-tetrahydronaphthalen-1-yl)ureido)pyrimidine-2-carboxamide formate salt] | 1 to 5
4 | < 1 | CCC(CC)c1nnc2ccc(O[C@@H]3CC[C@H](NC(=O)Nc4cc(C(C)(C)C)nc(C(=O)NCC(C)(C)N(C)CC)n4)c4ccccc43)cn12 [Example 176, 4-(tert-butyl)-N-(2-(ethyl(methyl)amino)-2-methylpropyl)-6-(3-((1S,4R)-4-((3-(pentan-3-yl)-[1,2,4]triazolo[4,3-a]pyridin-6-yl)oxy)-1,2,3,4-tetrahydronaphthalen-1-yl)ureido)pyrimidine-2-carboxamide] | 1 to 5
5 | 1 to 10 | COCCN(C)C(C)(C)CNC(=O)c1nc(NC(=O)N[C@H]2CC[C@@H](Oc3ccc4nnc(C(C)(C)COC)n4c3)c3ccccc32)cc(C(C)(C)C)n1 [Example 178, 4-(tert-butyl)-6-(3-((1S,4R)-4-((3-(1-methoxy-2-methylpropan-2-yl)-[1,2,4]triazolo[4,3-a]pyridin-6-yl)oxy)-1,2,3,4-tetrahydronaphthalen-1-yl)ureido)-N-(2-((2-methoxyethyl)(methyl)-amino)-2-methylpropyl)pyrimidine-2-carboxamide] | 1 to 5
6 | < 1 | CN(CCO)CCNC(=O)c1nc(NC(=O)N[C@H]2CC[C@@H](Oc3ccc4nnc(C5(C)CCCC5)n4c3)c3ccccc32)cc(C(C)(C)C)n1 [Example 181, 4-(tert-butyl)-N-(2-((2-hydroxyethyl)(methyl)amino)ethyl)-6-(3-((1S,4R)-4-((3-(1-methylcyclopentyl)-[1,2,4]triazolo[4,3-a]pyridin-6-yl)oxy)-1,2,3,4-tetrahydronaphthalen-1-yl)ureido)pyrimidine-2-carboxamide] | 1 to 5
7 | < 1 | CC(C)(C)c1cc(NC(=O)N[C@H]2CC[C@@H](Oc3ccc4nnc(C5(C)CCCC5)n4c3)c3ccccc32)nc(C(=O)NCCN2CCCOCC2)n1 [Example 182, N-(2-(1,4-oxazepan-4-yl)ethyl)-4-(tert-butyl)-6-(3-((1S,4R)-4-((3-(1-methylcyclopentyl)-[1,2,4]triazolo[4,3-a]pyridin-6-yl)oxy)-1,2,3,4-tetrahydronaphthalen-1-yl)ureido)pyrimidine-2-carboxamide] | < 1
8 | < 1 | CN(C)C(C)(C)CNC(=O)c1nc(NC(=O)N[C@H]2CC[C@@H](Oc3ccc4nnc(C5(C)CCCC5)n4c3)c3ccccc32)cc(C(C)(C)C)n1 [Example 183, 4-(tert-butyl)-N-(2-(dimethylamino)-2-methylpropyl)-6-(3-((1S,4R)-4-((3-(1-methylcyclopentyl)-[1,2,4]triazolo[4,3-a]pyridin-6-yl)oxy)-1,2,3,4-tetrahydronaphthalen-1-yl)ureido)pyrimidine-2-carboxamide] | 1 to 5
9 | < 1 | CC(C)(C)c1cc(NC(=O)N[C@H]2CC[C@@H](Oc3ccc4nnc(C5(C)CCCC5)n4c3)c3ccccc32)nc(C(=O)NCCCN2CCOCC2)n1 [Example 184, 4-(tert-Butyl)-6-(3-((1S,4R)-4-((3-(1-methylcyclopentyl)-[1,2,4]triazolo[4,3-a]pyridin-6-yl)oxy)-1,2,3,4-tetrahydronaphthalen-1-yl)ureido)-N-(3-morpholinopropyl)-pyrimidine-2-carboxamide formate salt] | < 1
10 | < 1 | CN(C)CCNC(=O)c1cc(NC(=O)N[C@H]2CC[C@@H](Oc3ccc4nnc(C(C)(C)C)n4c3)c3ccccc32)cc(C(C)(C)C)n1 [Example 186, 6-(tert-butyl)-4-(3-((1S,4R)-4-((3-(tert-butyl)-[1,2,4]triazolo[4,3-a]pyridin-6-yl)oxy)-1,2,3,4-tetrahydronaphthalen-1-yl)ureido)-N-(2-(dimethylamino)ethyl)-picolinamide] | < 1
11 | 1 to 10 | CC(C)(C)c1cc(NC(=O)N[C@H]2CC[C@@H](Oc3ccc4nnc(C(C)(C)C)n4c3)c3ccccc32)cc(C(=O)NCCCN2CCOCC2)n1 [Example 187, 6-(tert-butyl)-4-(3-((1S,4R)-4-((3-(tert-butyl)-[1,2,4]triazolo[4,3-a]pyridin-6-yl)oxy)-1,2,3,4-tetrahydronaphthalen-1-yl)ureido)-N-(3-morpholinopropyl)-picolinamide] | 1 to 5
12 | < 1 | CN(CCO)CCNC(=O)c1cc(NC(=O)N[C@H]2CC[C@@H](Oc3ccc4nnc(C(C)(C)C)n4c3)c3ccccc32)cc(C(C)(C)C)n1 [Example 188, 6-(tert-butyl)-4-(3-((1S,4R)-4-((3-(tert-butyl)-[1,2,4]triazolo[4,3-a]pyridin-6-yl)oxy)-1,2,3,4-tetrahydronaphthalen-1-yl)ureido)-N-(2-((2-hydroxyethyl)(methyl)-amino)ethyl)picolinamide] | 1 to 5
13 | 1 to 10 | CC(C)(C)c1cc(NC(=O)N[C@H]2CC[C@@H](Oc3ccc4nnc(C(C)(C)C)n4c3)c3ccccc32)cc(C(=O)NCCN2CCCOCC2)n1 [Example 189, N-(2-(1,4-oxazepan-4-yl)ethyl)-6-(tert-butyl)-4-(3-((1S,4R)-4-((3-(tert-butyl)-[1,2,4]triazolo[4,3-a]pyridin-6-yl)oxy)-1,2,3,4-tetrahydronaphthalen-1-yl)ureido)picolinamide] | 1 to 5
14 | < 1 | COCC(C)(C)c1nnc2ccc(O[C@@H]3CC[C@H](NC(=O)Nc4cc(C(=O)NCCN(C)C)nc(C(C)(C)C)c4)c4ccccc43)cn12 [Example 190, 6-(tert-butyl)-N-(2-(dimethylamino)ethyl)-4-(3-((1S,4R)-4-((3-(1-methoxy-2-methylpropan-2-yl)-[1,2,4]triazolo[4,3-a]pyridin-6-yl)oxy)-1,2,3,4-tetrahydronaphthalen-1-yl)ureido)picolinamide] | 1 to 5
15 | 1 to 10 | CCN(C)CCNC(=O)c1cc(NC(=O)N[C@H]2CC[C@@H](Oc3ccc4nnc(C(C)(C)C)n4c3)c3ccccc32)cc(C(C)(C)C)n1 [Example 191, 6-(tert-butyl)-4-(3-((1S,4R)-4-((3-(tert-butyl)-[1,2,4]triazolo[4,3-a]pyridin-6-yl)oxy)-1,2,3,4-tetrahydronaphthalen-1-yl)ureido)-N-(2-(ethyl(methyl)amino)-ethyl)picolinamide] | 1 to 5
16 | 1 to 10 | COCCN(C)CCNC(=O)c1cc(NC(=O)N[C@H]2CC[C@@H](Oc3ccc4nnc(C(C)(C)C)n4c3)c3ccccc32)cc(C(C)(C)C)n1 [Example 192, 6-(tert-butyl)-4-(3-((1S,4R)-4-((3-(tert-butyl)-[1,2,4]triazolo[4,3-a]pyridin-6-yl)oxy)-1,2,3,4-tetrahydronaphthalen-1-yl)ureido)-N-(2-((2-methoxyethyl)(methyl)-amino)ethyl)picolinamide] | 1 to 5
17 | 1 to 10 | COC1CN(CCNC(=O)c2cc(NC(=O)N[C@H]3CC[C@@H](Oc4ccc5nnc(C(C)(C)C)n5c4)c4ccccc43)cc(C(C)(C)C)n2)C1 [Example 193, 6-(tert-butyl)-4-(3-((1S,4R)-4-((3-(tert-butyl)-[1,2,4]triazolo[4,3-a]pyridin-6-yl)oxy)-1,2,3,4-tetrahydronaphthalen-1-yl)ureido)-N-(2-(3-methoxyazetidin-1-yl)ethyl)picolinainide] | 1 to 5
18 | < 1 | CC(C)(C)c1cc(NC(=O)N[C@H]2CC[C@@H](Oc3ccc4nnc(C(C)(C)C)n4c3)c3ccccc32)cc(C(=O)NCCN2CC[C@H](O)C2)n1 [Example 195, 6-(tert-butyl)-4-(3-((1S,4R)-4-((3-(tert-butyl)-[1,2,4]triazolo[4,3-a]pyridin-6-yl)oxy)-1,2,3,4-tetrahydronaphthalen-1-yl)ureido)-N-(2-((S)-3-hydroxypyrrolidin-1-yl)ethyl)picolinamide] | > 5
